Test results: ChEMBL document CHEMBL4602701 (J Med Chem, 2020); call rule not given here

Tests used:
[1] = molecular target: T1, Steroid 17-alpha-hydroxylase/17,20 lyase (Homo sapiens, UniProt P05093); experiment: Binding affinity to C-terminal 6-His-tagged human CYP17A1 expressed in Escherichia coli assessed as induction of spectral changes by measuring rate constant of first reaction at 20 uM using 2 uM CYP17A1 by spectroscopy
T1 sequence (P05093 whole entry): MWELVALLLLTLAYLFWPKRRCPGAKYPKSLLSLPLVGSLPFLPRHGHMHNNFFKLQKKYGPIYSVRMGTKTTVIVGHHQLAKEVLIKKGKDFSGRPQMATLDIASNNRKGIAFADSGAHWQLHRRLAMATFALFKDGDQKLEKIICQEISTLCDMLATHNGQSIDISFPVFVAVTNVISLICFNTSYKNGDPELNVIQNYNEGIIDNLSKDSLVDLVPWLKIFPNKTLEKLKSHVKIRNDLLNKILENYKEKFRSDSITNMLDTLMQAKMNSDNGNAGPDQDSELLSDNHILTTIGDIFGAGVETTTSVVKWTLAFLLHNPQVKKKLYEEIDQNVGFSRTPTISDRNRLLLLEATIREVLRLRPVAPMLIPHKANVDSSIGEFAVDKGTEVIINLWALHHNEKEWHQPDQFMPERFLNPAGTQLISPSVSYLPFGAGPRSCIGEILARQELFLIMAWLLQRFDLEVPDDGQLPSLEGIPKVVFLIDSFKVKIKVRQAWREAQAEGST

[2] = molecular target: T1, Steroid 17-alpha-hydroxylase/17,20 lyase; experiment: Binding affinity to C-terminal 6-His-tagged human CYP17A1 expressed in Escherichia coli assessed as induction of spectral changes by measuring rate constant of second reaction at 20 uM using 2 uM CYP17A1 by spectroscopy
[3] = molecular target: T1, Steroid 17-alpha-hydroxylase/17,20 lyase; experiment: Binding affinity to C-terminal 6-His-tagged human CYP17A1 expressed in Escherichia coli assessed as induction of type II binding spectral changes at 50 uM using 1 uM CYP17A1 by spectroscopy

K [1]: 44 to 45 s⁻¹
K [2]: 1.9 s⁻¹
Activity [3]: Active
SMILES: CC(C)[C@](O)(c1ccc2cc(OC(F)F)c(OC(F)F)cc2c1)c1c[nH]nn1 [SEVITERONEL]
